Test results as given in US9988371B2, “Benzimidazole analogues and related methods” (The Arizona Board of Regents, on Behalf of the University …, priority 2014, dated 2018).

Experiments:
[1] = tested on: pMAPK; experiment: pMAPK immunoblot in TT cells; type: cell-based, human; settings: 1 nM
Method: FIG. 3: Photographs of blots showing inhibition of RET protein endogenously expressed in TT cells (human MTC cell line expressing RET/C634W) by indicated concentrations of Pz-1 or vehicle (NT: not treated) and reduced effects in thyroid non-transformed Nthy-ori-3-1 cells. Serum-starved human TT and thyroid non-transformed Nthy-ori-3-1 cell lines were treated for 2 hr with indicated concentrations of Pz-1. 50 μg of total cell lysates were subjected to immunoblotting with anti-phospho-Y1062 (αp1062) and anti-phospho-905 (αpY905) RET antibodies, anti-phospho-MAPK (αpMAPK, T302/Y304), and anti-phospho-SHC (αpSHC, Y317) antibodies. The blots were normalized using anti-RET (αRET) and anti-SHC (αSHC).
The inhibition of RET auto-phosphorylation by Pz-1 was measured in several different cell lines including NIH3T3 fibroblasts expressing RET/C634Y or RET/M918T, TT expressing RET/C634W (MTC), Nthy-ory-3-1 (thyroid, non-transformed with RET; negative control), HEK293/RET/PTC1 (CCDC6-RET that can be found in PTC & lung cancer), HEK293/RET-KIF5B (that can be found in lung cancer), HEK293/RET/PTC3 (NCOA4-RET, that can be found in PTC & lung cancer), and HEK293 transfected with RET/C634R-V804M (FIGS. 1-3). […]
Protein lysates were prepared according to standard procedures. […] Immune complexes were detected with the enhanced chemiluminescence kit (Amersham Pharmacia Biotech, Little Chalfort, UK). […]

[2] = molecular target: T1, VEGFR2 (Mus musculus, UniProt P35918); experiment: In vivo target inhibition, pVEGFR2 in HRAS/G12V-induced tumors; parameters: species or system nude mice; settings: 48 hr, 1.0 or 3.0 mg/kg daily
T1 construct: from tissue; host or cells: subcutaneous tumours (NIH3T3 RET/C634Y or NIH3T3 HRAS/G12V) in BALB/c nu/nu mice
T1 sequence (P35918 20-1345): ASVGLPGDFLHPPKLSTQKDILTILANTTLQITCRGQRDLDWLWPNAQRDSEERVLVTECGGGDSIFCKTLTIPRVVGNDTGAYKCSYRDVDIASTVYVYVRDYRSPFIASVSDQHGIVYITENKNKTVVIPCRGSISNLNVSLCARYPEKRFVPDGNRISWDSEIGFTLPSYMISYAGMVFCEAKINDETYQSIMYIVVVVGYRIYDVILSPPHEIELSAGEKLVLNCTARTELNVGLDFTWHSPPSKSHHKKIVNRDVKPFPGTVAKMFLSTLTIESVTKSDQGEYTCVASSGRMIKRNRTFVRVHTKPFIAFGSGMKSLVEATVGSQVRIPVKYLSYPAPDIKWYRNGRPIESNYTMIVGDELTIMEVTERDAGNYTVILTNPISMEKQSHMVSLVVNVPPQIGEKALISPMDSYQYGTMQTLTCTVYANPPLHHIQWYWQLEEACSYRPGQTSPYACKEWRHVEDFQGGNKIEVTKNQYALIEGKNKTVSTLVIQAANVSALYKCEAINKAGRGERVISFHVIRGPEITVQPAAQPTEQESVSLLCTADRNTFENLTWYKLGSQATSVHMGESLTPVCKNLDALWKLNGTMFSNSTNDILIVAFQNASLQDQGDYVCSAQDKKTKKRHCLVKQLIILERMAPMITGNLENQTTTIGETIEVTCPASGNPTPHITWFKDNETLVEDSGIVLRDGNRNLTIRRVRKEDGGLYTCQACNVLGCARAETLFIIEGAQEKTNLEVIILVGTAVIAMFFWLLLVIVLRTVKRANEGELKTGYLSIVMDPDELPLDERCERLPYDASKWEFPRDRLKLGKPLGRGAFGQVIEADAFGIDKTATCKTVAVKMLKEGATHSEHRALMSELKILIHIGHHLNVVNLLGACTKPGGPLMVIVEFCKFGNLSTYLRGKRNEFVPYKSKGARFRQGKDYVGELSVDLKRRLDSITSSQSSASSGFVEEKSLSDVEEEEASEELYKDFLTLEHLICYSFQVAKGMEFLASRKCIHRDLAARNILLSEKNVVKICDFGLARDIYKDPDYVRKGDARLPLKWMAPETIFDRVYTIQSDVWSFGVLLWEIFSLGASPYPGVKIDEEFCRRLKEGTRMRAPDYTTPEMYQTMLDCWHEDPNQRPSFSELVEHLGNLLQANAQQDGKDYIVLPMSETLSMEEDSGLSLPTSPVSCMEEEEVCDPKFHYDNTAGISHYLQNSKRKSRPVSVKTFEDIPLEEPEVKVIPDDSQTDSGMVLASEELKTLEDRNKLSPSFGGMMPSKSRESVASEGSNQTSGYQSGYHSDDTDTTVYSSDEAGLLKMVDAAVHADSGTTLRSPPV
Method: FIG. 9: Photographs of blots showing effects of Pz-1 on cellular phosphorylation events in tumors induced in nude mice (from FIG. 8) by injection of NIH3T3 fibroblasts transformed by RET/C634Y or HRAS/G12V. […] Some of the vehicle-treated tumors, at the end of the tumor growth experiment described in FIG. 8, were treated for 48 hr with different doses of Pz-1 (TR) or left untreated (NT). At the end of the treatment, 50 μg of tumor protein lysates were subjected to immunoblotting with anti-phospho-Y1062 (αp1062) and anti-phospho-905 (αpY905) RET antibodies, anti-phospho-MAPK (αpMAPK, T302/Y304), anti-phospho-SHC (αpSHC, Y317), anti-phospho-p70S6K (αpp70S6K, T389), anti-phospho-S6RP (αpS6RP, S235/S236), and anti-phospho-VEGFR2 (αpVEGFR2 pY1175) antibodies. The blots were normalized using anti-RET (αRET), anti-SHC (αSHC), anti-MAPK (αMAPK), anti-p70S6K (αp70S6K), anti-S6RP (αS6RP) or anti-VEGFR2 (αVEGFR2) antibodies.
Some of the vehicle-treated tumors, at the end of the tumor growth experiment reported in FIG. 8, were treated for 48 hr with different doses of Pz-1 (1.0 or 3.0 mg/kg daily) or left untreated. […]

[3] = molecular target: CYP2D6 (Homo sapiens, UniProt P10635); experiment: CYP inhibition; type: in vitro ADME; settings: read-out: CYP 2D6 IC50
Chain of CYP2D6 (P10635 whole entry): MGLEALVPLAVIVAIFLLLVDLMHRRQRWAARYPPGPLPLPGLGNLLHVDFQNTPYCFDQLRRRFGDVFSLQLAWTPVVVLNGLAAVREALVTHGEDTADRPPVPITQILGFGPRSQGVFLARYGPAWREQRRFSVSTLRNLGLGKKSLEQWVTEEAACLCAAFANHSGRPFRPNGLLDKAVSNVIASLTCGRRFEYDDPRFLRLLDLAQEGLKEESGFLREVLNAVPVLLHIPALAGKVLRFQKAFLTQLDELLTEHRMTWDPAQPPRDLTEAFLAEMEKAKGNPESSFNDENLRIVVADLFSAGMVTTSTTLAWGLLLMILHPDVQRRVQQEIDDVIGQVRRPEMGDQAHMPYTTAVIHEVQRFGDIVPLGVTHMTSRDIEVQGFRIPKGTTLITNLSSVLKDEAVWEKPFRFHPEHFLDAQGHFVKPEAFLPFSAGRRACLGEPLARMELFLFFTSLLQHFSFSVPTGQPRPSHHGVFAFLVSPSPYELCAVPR

For `Cn1cc(-c2ccc3c(c2)ncn3-c2ccc(CC(=O)Nc3cc(C(C)(C)C)on3)cc2)cn1` [Pz-1, N-(5-(tert-butyl)isoxazol-3-yl)-2-(4-(5-(1-methyl-1H-pyrazol-4-yl)-1H-benzo[d]imidazol-1-yl)phenyl)acetamide], the “inhibition of pMAPK” value [1] was “strongly inhibited”, the pVEGFR2 in tumors [2] was “inhibited” and the IC50 [3] was 13.8 µM.
